{"source": "patent US6447748B1", "about": "“Benzamide compounds for cancer imaging and therapy” (Research Corporation Technologies, Inc., priority 1993, dated 2002)", "key": {"[1]": {"tested_on": "human A2058 melanoma xenografts", "assay": "Biodistribution in nude mice xenografted with human melanotic melanoma", "type": "in vivo, Balb/c nu/nu mice", "settings": "for RATIO Tumor/Blood / RATIO Tumor/Muscle / Biodistribution Blood / Biodistribution Bone / Biodistribution Brain / Biodistribution Heart / Biodistribution Intestine / Biodistribution Kidney / Biodistribution Liver / Biodistribution Lung / Biodistribution Muscle / Biodistribution Spleen / Biodistribution Stomach / Biodistribution Thyroid / Biodistribution Tumor: nude mice, human melanotic melanoma, mean (std. dev.); for Biodistribution Blood / Biodistribution Bone / Biodistribution Brain / Biodistribution Heart / Biodistribution Intestine / Biodistribution Kidney / Biodistribution Liver / Biodistribution Lung / Biodistribution Muscle / Biodistribution Spleen / Biodistribution Stomach / Biodistribution Thyroid / Biodistribution Tumor: n = 6", "procedure": "A2058 tumor cells, derived from a brain metastasis of human malignant melanoma (Todaro et al. 1980 Proc. Natl. Acad. Sci. USA 77:5258) were obtained from the National Institutes of Health. […] Suspension of 5×10^6 cells (viability greater than 95%) in 0.2 mL of medium were inoculated subcutaneously in female Balb/c nu/nu mice. After about two weeks, solid tumors of about 1 cm in diameter appeared in approximately 85% of all inoculated mice. […] Balb/c nu/nu mice (17-22 g) were injected intravenously with 0.2 ml of a saline solution containing [^125I]PAB (5-6 μCi). […] The values obtained were normalized to a mouse weighing 20 g. The differences between [^125I]PAB and [^125I]DAB were examined by Student's unpaired t tests."}, "[2]": {"tested_on": "human squamous cell carcinoma xenografts", "assay": "Biodistribution in nude mice xenografted with human squamous cell carcinoma", "type": "in vivo, Balb/c nu/nu mice", "settings": "for Biodistribution Blood / Biodistribution Bone / Biodistribution Brain / Biodistribution Heart / Biodistribution Intestine / Biodistribution Kidney / Biodistribution Liver / Biodistribution Lung / Biodistribution Spleen / Biodistribution Stomach / Biodistribution Thyroid / Biodistribution Tumor: nude mice, human squamous cell carcinoma, mean (std. dev.), n = 6", "procedure": "Non-small cell lung carcinoma cell lines NCI-157, NCI-838 and NCI-1299 were obtained from the National Cancer Institute. The NCI-157 cell line is a squamous carcinoma cell line, while NCI-838 is an adenocarcinoma cell line and NCI-1299 is a large cell lung carcinoma cell. […] Suspension of 5×10^6 cells (viability greater than 95%) in 0.2 mL of medium were inoculated subcutaneously in female Balb/c nu/nu mice. After about two weeks, solid tumors of about 1 cm in diameter appeared in approximately 85% of all inoculated mice. […] Balb/c nu/nu mice (17-22 g) were injected intravenously with 0.2 ml of a saline solution containing [^125I]PAB (5-6 μCi). […] The values obtained were normalized to a mouse weighing 20 g."}}, "data": [{"molecule": "O=C(NCCN1CCCCC1)c1ccc([125I])cc1", "note": "[[^125I]PAB, ^125I(2-piperidinylaminoethyl)4-iodobenzamide]", "values": [{"measurement": "RATIO Tumor/Blood", "setting": "[1]; 1 Hour", "result": "4.16 (1.09)"}, {"measurement": "RATIO Tumor/Muscle", "setting": "[1]; 1 Hour", "result": "7.16 (1.50)"}, {"measurement": "Biodistribution Blood", "setting": "[1]; 1 Hour", "result": "0.967 (.168) % ID/g"}, {"measurement": "Biodistribution Bone", "setting": "[1]; 1 Hour", "result": "0.750 (.0663) % ID/g"}, {"measurement": "Biodistribution Brain", "setting": "[1]; 1 Hour", "result": "0.895 (.0887) % ID/g"}, {"measurement": "Biodistribution Heart", "setting": "[1]; 1 Hour", "result": "1.14 (.207) % ID/g"}, {"measurement": "Biodistribution Intestine", "setting": "[1]; 1 Hour", "result": "10.64 (.541) % ID/g"}, {"measurement": "Biodistribution Kidney", "setting": "[1]; 1 Hour", "result": "3.82 (.561) % ID/g"}, {"measurement": "Biodistribution Liver", "setting": "[1]; 1 Hour", "result": "6.36 (.770) % ID/g"}, {"measurement": "Biodistribution Lung", "setting": "[1]; 1 Hour", "result": "2.34 (.277) % ID/g"}, {"measurement": "Biodistribution Muscle", "setting": "[1]; 1 Hour", "result": "0.552 (.0711) % ID/g"}, {"measurement": "Biodistribution Spleen", "setting": "[1]; 1 Hour", "result": "3.11 (.789) % ID/g"}, {"measurement": "Biodistribution Stomach", "setting": "[1]; 1 Hour", "result": "3.23 (.697) % ID/g"}, {"measurement": "Biodistribution Thyroid", "setting": "[1]; 1 Hour", "result": "4.23 (.594) % ID/g"}, {"measurement": "Biodistribution Tumor", "setting": "[1]; 1 Hour", "result": "3.87 (.470) % ID/g"}, {"measurement": "RATIO Tumor/Blood", "setting": "[1]; 6 Hour", "result": "14.9 (5.07)"}, {"measurement": "RATIO Tumor/Muscle", "setting": "[1]; 6 Hour", "result": "32.5 (12.0)"}, {"measurement": "Biodistribution Blood", "setting": "[1]; 6 Hour", "result": "0.208 (.0542) % ID/g"}, {"measurement": "Biodistribution Bone", "setting": "[1]; 6 Hour", "result": "0.115 (.0236) % ID/g"}, {"measurement": "Biodistribution Brain", "setting": "[1]; 6 Hour", "result": "0.122 (.0331) % ID/g"}, {"measurement": "Biodistribution Heart", "setting": "[1]; 6 Hour", "result": "0.167 (.0372) % ID/g"}, {"measurement": "Biodistribution Intestine", "setting": "[1]; 6 Hour", "result": "2.46 (1.18) % ID/g"}, {"measurement": "Biodistribution Kidney", "setting": "[1]; 6 Hour", "result": "0.483 (.131) % ID/g"}, {"measurement": "Biodistribution Liver", "setting": "[1]; 6 Hour", "result": "1.16 (.212) % ID/g"}, {"measurement": "Biodistribution Lung", "setting": "[1]; 6 Hour", "result": "0.387 (.0568) % ID/g"}, {"measurement": "Biodistribution Muscle", "setting": "[1]; 6 Hour", "result": "0.0983 (.0306) % ID/g"}, {"measurement": "Biodistribution Spleen", "setting": "[1]; 6 Hour", "result": "0.330 (.105) % ID/g"}, {"measurement": "Biodistribution Stomach", "setting": "[1]; 6 Hour", "result": "0.757 (.298) % ID/g"}, {"measurement": "Biodistribution Thyroid", "setting": "[1]; 6 Hour", "result": "0.583 (.203) % ID/g"}, {"measurement": "Biodistribution Tumor", "setting": "[1]; 6 Hour", "result": "2.91 (.463) % ID/g"}, {"measurement": "RATIO Tumor/Blood", "setting": "[1]; 24 Hour", "result": "17.8 (6.10)"}, {"measurement": "RATIO Tumor/Muscle", "setting": "[1]; 24 Hour", "result": "94.5 (32.5)"}, {"measurement": "Biodistribution Blood", "setting": "[1]; 24 Hour", "result": "0.0617 (.018) % ID/g"}, {"measurement": "Biodistribution Bone", "setting": "[1]; 24 Hour", "result": "0.0133 (.0052) % ID/g"}, {"measurement": "Biodistribution Brain", "setting": "[1]; 24 Hour", "result": "0.0067 (.0052) % ID/g"}, {"measurement": "Biodistribution Heart", "setting": "[1]; 24 Hour", "result": "0.0283 (.0075) % ID/g"}, {"measurement": "Biodistribution Intestine", "setting": "[1]; 24 Hour", "result": "0.132 (.0852) % ID/g"}, {"measurement": "Biodistribution Kidney", "setting": "[1]; 24 Hour", "result": "0.0850 (.016) % ID/g"}, {"measurement": "Biodistribution Liver", "setting": "[1]; 24 Hour", "result": "0.263 (.0216) % ID/g"}, {"measurement": "Biodistribution Lung", "setting": "[1]; 24 Hour", "result": "0.0717 (.0075) % ID/g"}, {"measurement": "Biodistribution Muscle", "setting": "[1]; 24 Hour", "result": "0.0117 (.0041) % ID/g"}, {"measurement": "Biodistribution Spleen", "setting": "[1]; 24 Hour", "result": "0.0383 (.015) % ID/g"}, {"measurement": "Biodistribution Stomach", "setting": "[1]; 24 Hour", "result": "0.130 (0.881) % ID/g"}, {"measurement": "Biodistribution Thyroid", "setting": "[1]; 24 Hour", "result": "0.100 (.143) % ID/g"}, {"measurement": "Biodistribution Tumor", "setting": "[1]; 24 Hour", "result": "1.028 (.239) % ID/g"}, {"measurement": "amount in tumors relative to livers", "setting": "[1]; 24 hrs., melanoma xenograft", "result": "about four-fold"}, {"measurement": "tumor concentration relative to that of [125I]DAB", "setting": "[1]; 24 hrs., melanoma xenograft", "result": "twice"}, {"measurement": "Biodistribution Blood", "setting": "[2]; 1 hr.", "result": "1.99 (0.35) % ID/g"}, {"measurement": "Biodistribution Bone", "setting": "[2]; 1 hr.", "result": "2.03 (0.28) % ID/g"}, {"measurement": "Biodistribution Brain", "setting": "[2]; 1 hr.", "result": "1.80 (0.17) % ID/g"}, {"measurement": "Biodistribution Heart", "setting": "[2]; 1 hr.", "result": "2.25 (0.07) % ID/g"}, {"measurement": "Biodistribution Intestine", "setting": "[2]; 1 hr.", "result": "12.63 (0.43) % ID/g"}, {"measurement": "Biodistribution Kidney", "setting": "[2]; 1 hr.", "result": "6.56 (0.04) % ID/g"}, {"measurement": "Biodistribution Liver", "setting": "[2]; 1 hr.", "result": "10.48 (1.26) % ID/g"}, {"measurement": "Biodistribution Lung", "setting": "[2]; 1 hr.", "result": "4.91 (0.25) % ID/g"}, {"measurement": "Biodistribution Spleen", "setting": "[2]; 1 hr.", "result": "3.97 (0.18) % ID/g"}, {"measurement": "Biodistribution Stomach", "setting": "[2]; 1 hr.", "result": "5.57 (1.31) % ID/g"}, {"measurement": "Biodistribution Thyroid", "setting": "[2]; 1 hr.", "result": "7.84 (0.91) % ID/g"}, {"measurement": "Biodistribution Tumor", "setting": "[2]; 1 hr.", "result": "4.27 (0.40) % ID/g"}, {"measurement": "Biodistribution Blood", "setting": "[2]; 6 hr.", "result": "0.51 (0.03) % ID/g"}, {"measurement": "Biodistribution Bone", "setting": "[2]; 6 hr.", "result": "0.56 (0.18) % ID/g"}, {"measurement": "Biodistribution Brain", "setting": "[2]; 6 hr.", "result": "0.29 (0.01) % ID/g"}, {"measurement": "Biodistribution Heart", "setting": "[2]; 6 hr.", "result": "0.49 (0.03) % ID/g"}, {"measurement": "Biodistribution Intestine", "setting": "[2]; 6 hr.", "result": "11.41 (0.52) % ID/g"}, {"measurement": "Biodistribution Kidney", "setting": "[2]; 6 hr.", "result": "1.61 (0.28) % ID/g"}, {"measurement": "Biodistribution Liver", "setting": "[2]; 6 hr.", "result": "3.47 (0.23) % ID/g"}, {"measurement": "Biodistribution Lung", "setting": "[2]; 6 hr.", "result": "1.10 (0.03) % ID/g"}, {"measurement": "Biodistribution Spleen", "setting": "[2]; 6 hr.", "result": "0.86 (0.20) % ID/g"}, {"measurement": "Biodistribution Stomach", "setting": "[2]; 6 hr.", "result": "3.46 (0.18) % ID/g"}, {"measurement": "Biodistribution Thyroid", "setting": "[2]; 6 hr.", "result": "2.80 (0.49) % ID/g"}, {"measurement": "Biodistribution Tumor", "setting": "[2]; 6 hr.", "result": "3.27 (0.33) % ID/g"}, {"measurement": "Biodistribution Blood", "setting": "[2]; 24 hr.", "result": "0.15 (0.07) % ID/g"}, {"measurement": "Biodistribution Bone", "setting": "[2]; 24 hr.", "result": "0.02 (0.00) % ID/g"}, {"measurement": "Biodistribution Brain", "setting": "[2]; 24 hr.", "result": "0.01 (0.00) % ID/g"}, {"measurement": "Biodistribution Heart", "setting": "[2]; 24 hr.", "result": "0.03 (0.00) % ID/g"}, {"measurement": "Biodistribution Intestine", "setting": "[2]; 24 hr.", "result": "0.38 (0.09) % ID/g"}, {"measurement": "Biodistribution Kidney", "setting": "[2]; 24 hr.", "result": "0.13 (0.00) % ID/g"}, {"measurement": "Biodistribution Liver", "setting": "[2]; 24 hr.", "result": "0.39 (0.02) % ID/g"}, {"measurement": "Biodistribution Lung", "setting": "[2]; 24 hr.", "result": "0.08 (0.00) % ID/g"}, {"measurement": "Biodistribution Spleen", "setting": "[2]; 24 hr.", "result": "0.05 (0.00) % ID/g"}, {"measurement": "Biodistribution Stomach", "setting": "[2]; 24 hr.", "result": "0.20 (0.03) % ID/g"}, {"measurement": "Biodistribution Thyroid", "setting": "[2]; 24 hr.", "result": "0.09 (0.01) % ID/g"}, {"measurement": "Biodistribution Tumor", "setting": "[2]; 24 hr.", "result": "0.66 (0.12) % ID/g"}, {"measurement": "tumor concentration relative to that of [125I]DAB", "setting": "[2]; 24 hrs. post-injection, squamous cell carcinoma xenograft", "result": "more than three-fold"}]}]}
